Tests used:
Format in all cases: cell-based
[1] = system: multi-resistant Staphylococcus aureus 575 (MRSA-575); assay: Paper diffusion method drug sensitivity test, MRSA-575; conditions: for inhibitory effect (in words): multi-drug resistant Staphylococcus aureus 575, paper diffusion; for Zone of inhibition: strain MRSA-575, drug sensitive paper 30 μg/tablet, 6.35 mm, LB plate, 37° C., 24 h, ≥17 mm sensitive, 15-16 mm intermediary, ≤14 mm resistance
Protocol: (§1) The antimicrobial efficacy was determined by a paper diffusion method drug sensitivity test.
(§2) Experimental strains: multi-resistant Staphylococcus aureus 171, multi-resistant Staphylococcus aureus 222, multi-resistant Staphylococcus aureus 575. The experimental strains were identified by Huashan Hospital Affiliated to Fudan University (Institute of Antibiotic of Fudan University).
(§3) Drug sensitive paper: The drug sensitive paper is a special drug sensitive paper with a diameter of 6.35 mm and a water absorption of 0.02 mL. The control drug was vancomycin (30 μg/tablet); the test drugs were pleuromutilin (E)-4-(1-imidazoyl-methyl)cinnamic acid ester (30 μg/tablet).
(§4) The experimental strains were inoculated in non-selective medium and placed in air at 37° C. for 24 h. Pick a single colony that grows well and inoculate it into broth medium, incubate at 35° C.±2° C. for 6 hours, and use LA broth medium to calibrate the concentration of the bacterial solution to 0.5 Mie turbidimetric tube ([…]). A bacterial suspension is obtained.
(§5) LB dry powder was weighed, sterilized at 103.4 Kpa, 121.3° C. high-pressure steam for 15 min, and then placed it in a 40° C.-50° C. water bath. A sterile empty plate (inner diameter 9 cm) was placed on the surface of the ultra-clean table water table, and […] to the plate. The thickness of each plate was 3 mm to 4 mm. After the plate was cooled at room temperature, it was stored in the refrigerator at 2° C.-8° C. A sterile cotton swab was used to dip the bacterial solution and to evenly coat the surface of the LB plate 3 times. After inoculation of the bacterial suspension, the LB plate was dried at room temperature for 3 min to 5 min. Sterile forceps were used to closely attach the antibacterial drug paper to the dish. The dish was put upside down and placed in a 37° C. incubator for 24 h. The results were observed by measuring the diameter. Taking 0.5% DMSO solution as a negative control, the antibacterial activity is expressed by the diameter of the inhibition zone. The inhibition zone ≥17 mm, sensitive; the inhibition zone of 15 mm-16 mm, intermediary; the inhibition zone ≤14 mm, drug resistance.

[2] = system: multi-resistant Staphylococcus aureus 171 (MRSA-171); assay: Paper diffusion method drug sensitivity test, MRSA-171; conditions: for inhibitory effect (in words): multi-drug resistant Staphylococcus aureus 171, paper diffusion; for Zone of inhibition: strain MRSA-171, drug sensitive paper 30 μg/tablet, 6.35 mm, LB plate, 37° C., 24 h, ≥17 mm sensitive, 15-16 mm intermediary, ≤14 mm resistance
Protocol: as §1, §2, §3, §4, §5

[3] = system: multi-resistant Staphylococcus aureus 222 (MRSA-222); assay: Paper diffusion method drug sensitivity test, MRSA-222; conditions: for inhibitory effect (in words): multi-drug resistant Staphylococcus aureus 222, paper diffusion; for Zone of inhibition: strain MRSA-222, drug sensitive paper 30 μg/tablet, 6.35 mm, LB plate, 37° C., 24 h, ≥17 mm sensitive, 15-16 mm intermediary, ≤14 mm resistance
Protocol: as §1, §2, §3, §4, §5

Row | Compound | inhibitory effect (in words) [1] | Zone of inhibition [1] [mm] | inhibitory effect (in words) [2] | Zone of inhibition [2] [mm] | inhibitory effect (in words) [3] | Zone of inhibition [3] [mm]
1 | C=C[C@]1(C)C[C@@H](OC(=O)COC(=O)/C=C/c2ccc(Cn3ccnc3)cc2)[C@]2(C)[C@H](C)CC[C@]3(CCC(=O)[C@H]32)[C@@H](C)[C@@H]1O | strong inhibitory effects | 15 | strong inhibitory effects | 16 | strong inhibitory effects | 17
2 | C=C[C@]1(C)C[C@@H](OC(=O)CO)[C@]2(C)[C@H](C)CC[C@]3(CCC(=O)[C@H]32)[C@@H](C)[C@@H]1O [Pleuromutilin] | no inhibitory effect | 0 | no inhibitory effect | 0 | no inhibitory effect | 0
3 | O=C(O)/C=C/c1ccc(Cn2ccnc2)cc1 [(E)-4-(1-imidazoylmethyl)cinnamic acid] | no inhibitory effect | 0 | no inhibitory effect | 0 | no inhibitory effect | 0
4 | CN[C@H](CC(C)C)C(=O)N[C@H]1C(=O)N[C@@H](CC(N)=O)C(=O)N[C@H]2C(=O)N[C@H]3C(=O)N[C@H](C(=O)N[C@H](C(=O)O)c4cc(O)cc(O)c4-c4cc3ccc4O)[C@H](O)c3ccc(c(Cl)c3)Oc3cc2cc(c3O[C@@H]2O[C@H](CO)[C@@H](O)[C@H](O)[C@H]2O[C@H]2C[C@](C)(N)[C@H](O)[C@H](C)O2)Oc2ccc(cc2Cl)[C@H]1O [Vancomycin, vancomycin] | – | 21 | – | 17 | – | 18

Reference: patent US20220354826A1, “PLEUROMUTILIN (E)-4-(1-IMIDAZOYLMETHYL )CINNAMIC ACID ESTER WITH ANTI-DRUG RESISTANT BACTERIA ACTIVITY AND A METHOD OF PREPARING THE SAME” (SHAANXI UNIVERSITY OF SCIENCE AND TECHNOLOGY, priority 2021, published 2022)
